Data: patent US20260185054A1, “METHOD FOR PRODUCING METABOLICALLY ACTIVATED LIVER ORGANOID, COMPOSITION, AND METHOD FOR EVALUATING TEST SUBSTANCE” (JSR CORPORATION, priority 2023, published 2026)

Assays:
Format in all cases: cell-based, human
[1] = system: gluconeogenesis-related genes, urea production-related genes and CYP genes in liver organoid; assay: Quantitative real-time PCR of liver organoids, A83-01 removed from differentiation medium; conditions: liver organoids cultured in DM medium from which A83-01 had been removed, versus DM medium
Text: A liver organoid was produced in the same manner as in Experimental Example 3, except that the transforming growth factor β receptor antagonist (A83-01) was removed from the differentiation medium (DM medium), and the expression of the gluconeogenesis-related genes, the urea production-related genes, and the CYP genes was examined by quantitative real-time PCR.
(§1) A total RNA was extracted from cells using Direct-zol RNA Kit micro (Zymo Research, catalog number: #R2063), and a reverse transcription reaction was carried out using a PrimeScript RT Master Mix (Takara Bio, catalog number: RR036A) to obtain a cDNA. Subsequently, quantitative real-time PCR was performed using LightCycler 480 System (Roche) and using TB Green Premix Ex Taq II (Takara Bio, catalog number: #RR820A). The cDNA of the primary human hepatocyte was diluted to create a calibration curve.

liver organoid [2] = assay: Gluconeogenesis of liver organoid (glucose quantified in medium supernatant, Glucose-Glo Assay); conditions: for gluconeogenesis of the liver organoid: glucose corrected by ATP, donor 9
Method: Subsequently, the medium was replaced with a Gluconogenesis assay medium having the composition shown in Table 4 below (hereinafter sometimes referred to as a “GM medium”), and incubation was performed for 24 hours in an environment of 37° C., 1 atm, and a CO2 concentration of 5 v/v %. The supernatant of the medium after the incubation was collected, and glucose and urea included in the medium were quantified. The measurement results will be described later.
The glucose was measured according to a protocol of the manufacturer using a Glucose-Glo™ Assay (Promega, catalog number: J6022). […]
In addition, the liver organoid after the incubation were washed three times with Fasting Medium (hereinafter sometimes referred to as an “FM medium”) having the composition shown in Table 3, FM was added thereto at 500 μL/well, and incubation was performed for 18 hours in an environment of 37° C., 1 atm, and a CO2 concentration of 5 v/v %.
Subsequently, the medium was replaced with a Gluconogenesis assay medium having the composition shown in Table 4 (hereinafter sometimes referred to as a “GM medium”), and incubation was performed for 24 hours in an environment of 37° C., 1 atm, and a CO2 concentration of 5 v/v %. The supernatant of the medium after the incubation was collected, and glucose and urea included in the medium were quantified. The quantification of glucose and urea was performed in the same manner as in Experimental Example 1. The measurement results will be described later.
The medium of the liver organoid, which had been produced in the same manner as in Experimental Example 2 and expansion-cultured for 2 weeks, was replaced with a differentiation medium (hereinafter sometimes referred to as a “DM medium”) having the composition shown in Table 6 below at 500 μL/well, and incubated for 2 weeks in an environment of 37° C., 1 atm, and a CO2 concentration of 5 v/v %. The medium was replaced every 7 days.
Subsequently, gluconeogenesis, urea production, albumin production, and bile acid production of the liver organoid were evaluated in the same manner as in Experimental Example 2. The results of the amount of glucose produced and the amount of urea produced will be described later.

liver organoid [3] = assay: Urea production of liver organoid (Quantichrom Urea Assay Kit); conditions: metformin 1 mM or 10 mM added to MM, FM and GM medium; organoid cultured in DM medium
Method: The urea was measured according to a protocol of the manufacturer using Quantichrom Urea Assay Kit (Bioassay Systems, catalog number: DIUR-100).

[4] = system: gluconeogenesis-related genes (FBP1, PCK1) in liver organoid; assay: Quantitative real-time PCR of liver organoids, gluconeogenesis medium composition changed; conditions: 1 μM insulin in GM medium with 200 pg/mL glucagon and 400 ng/mL cortisol; FM 6 hours, GM 4 hours; donor 2
Method: A GM medium obtained by removing glucagon and cortisol from the gluconeogenesis medium (GM medium) having the composition shown in Table 4, and further adding the components shown in Table 15 was prepared. Liver organoids were produced in the same manner as in Experimental Example 3, except that the incubation was performed for 6 hours after the addition of the FM medium and then the incubation was performed for 4 hours after the addition of the GM medium. In addition, the donor of the primary human hepatocyte used for the production of the liver organoid was a donor 2.
as §1, with “Subsequently, the expression of various genes in each of the produced liver organoids was analyzed by quantitative real-time PCR (qPCR). Specifically, a total” for “A total”

[5] = factor included in differentiation medium at varied concentrations (Tables 9, 10)
[6] = factor included in gluconeogenesis medium (Tables 17, 18)

Cc1cccc(-c2nn(C(=S)Nc3ccccc3)cc2-c2ccnc3ccccc23)n1 [A83-01]
expression of the gluconeogenesis-related genes, the urea production-related genes, and the CYP genes [1]: decreased

C[C@]12CCC(=O)C=C1CC[C@@H]1[C@@H]2[C@@H](O)C[C@@]2(C)[C@H]1CC[C@]2(O)C(=O)CO [cortisol, reference compound]
gluconeogenesis of the liver organoid (liver organoid [2]; [5]): improved in a manner dependent on the concentrations of added factors | gluconeogenesis of the liver organoid (liver organoid [2]; [6]): improved

CN(C)C(=N)N=C(N)N [metformin, reference compound]
gluconeogenesis in the liver organoid (liver organoid [2]; metformin 1 mM or 10 mM added to MM, FM and GM medium, organoid cultured in DM medium): suppressed | urea production in the liver organoid (liver organoid [3]): suppressed

glucagon: hormone that increases blood glucose level through glycogenolysis and gluconeogenesis in the liver (Sigma G2044)
gluconeogenesis of the liver organoid (liver organoid [2]; [6]): improved

growth hormone: hormone secreted from the anterior pituitary; growth hormone receptor agonist (PeproTech 100-40)
gluconeogenesis of the liver organoid (liver organoid [2]; [5]): improved in a manner dependent on the concentrations of added factors | gluconeogenesis of the liver organoid (liver organoid [2]; [6]): improved

insulin: insulin added at 1 μM to the gluconeogenesis medium
expression of the gluconeogenesis-related genes [4]: suppresses

B1: prolactin: hormone from prolactin-secreting cells of the anterior pituitary; prolactin receptor agonist (PeproTech 100-07) (protein, UniProt P01236 29-227, looked up)
Prolactin: LPICPGGAARCQVTLRDLFDRAVVLSHYIHNLSSEMFSEFDKRYTHGRGFITKAINSCHTSSLATPEDKEQAQQMNQKDFLSLIVSILRSWNEPLYHLVTEVRGMQEAPEAILSKAVEIEEQTKRLLEGMELIVSQVHPETKENEIYPVWSGLPSLQMADEESRLSAYYNLLHCLRRDSHKIDNYLKLLKCRIIHNNNC
gluconeogenesis of the liver organoid (liver organoid [2]; [5]): improved in a manner dependent on the concentrations of added factors | gluconeogenesis of the liver organoid (liver organoid [2]; [6]): improved
